Row | melting point | SMILES
1 | 159 to 161 °C | COc1ccc(CCNC(=O)CCCCC(=O)NCCc2ccc(OC)c(OC)c2Cl)c(Cl)c1OC
2 | 98 to 101 °C | CC(C)c1cc(Oc2c(Cl)cc(C(F)(F)F)cc2Cl)n[nH]1
3 | 120 to 124 °C | CC(OC(C)(C)C(=O)O)c1cc(-c2ccc(Cl)cc2)no1 (single isomer, unassigned; (+))
4 | 86 to 88 °C | COC(=O)C1=Cc2cc(-c3ccc(OCCOC(C)C)cc3)ccc2NCC1
5 | 125 to 128 °C | COc1ccc(C)cc1NC(=O)Nc1ccc(C2=CCN(C(=O)Nc3ccc(OCC(O)CO)cc3Cl)CC2)cc1 (stereo not given)
6 | 219 to 220 °C | CCn1nc2c(OC)nc3ccccc3c2c1CO
7 | 139 to 140 °C | O=c1c2ccccc2sc2c(OCc3ccccc3)ccc(Cl)c12
8 | 113 to 115 °C | O=C(NOCC(O)CO)c1ccc(F)c(F)c1Nc1ccccc1F (stereo not given)
9 | 224 to 226 °C | COC1(OC)CCN(c2cc3c(cc2F)c(=O)c(C(=O)O)cn3C2CC2)C1
10 | 114 to 116 °C | C=CCC(CC=C)(C(=O)NO)S(=O)(=O)c1ccc(OC)cc1
11 | 65 to 66 °C | CCOC(=O)c1ccc(N(Cc2ccc(Cl)cc2)C(C)=O)cc1
12 | 82 to 83 °C | COc1ccc2[nH]c(Br)c(CCNC(=O)C3CC3)c2c1
13 | 156 to 157 °C | Cc1ccc(S(=O)(=O)Oc2ccc(S(=O)(=O)CC(=O)C(C)C)cc2)cc1
14 | 120 to 122 °C | S=c1nc2c(Cl)cccn2c(=S)n1-c1ncccc1Cl
15 | 233 °C | CC(C)(C)C(=O)Nc1cc2c(O)n(I)c(I)nc-2n1
16 | 156 to 158 °C | Cc1nc(CO)n(Cc2ccccc2)c1C
17 | 175 to 176 °C | COCCNc1ccc2ncnc(Nc3ccc(F)cc3F)c2c1
18 | 132 to 135 °C | CCOC(=O)c1nc(Cl)n2c1c(Cl)nc1ccccc12
19 | 137 to 139 °C | N#CN=C(Nc1cccnc1)NC(NC(=O)c1ccc(Cl)cc1)C1CC1 (stereo not given)
20 | 175 to 177 °C | O=C1CC=C(c2c[nH]c3cc([N+](=O)[O-])ccc23)CC1

Row | melting point | SMILES
21 | 127 to 129 °C | CCOC(=O)COc1ccc(C2=NNC(=O)CC2)cc1
22 | 61.5 to 62 °C | CCCCCCCCCc1nnc(C2=C(O)c3ccccc3S(=O)(=O)N2C)o1
23 | 174 to 175 °C | CC(C(O)CCC1CC1)C1CCC2C3CC=C4CC(O)CCC4(C)C3CCC12C (stereo not given)
24 | 218 to 219 °C | CC1(C)CC(=O)C(c2ccc(N)cc2Cl)C(=O)C1
25 | 90 to 92 °C | CCCCCCCCc1c(N)nc(S(C)(=O)=O)nc1CC
26 | 180 to 182 °C | CCOc1cc(C(=CC#N)c2ccc3c(c2)nnn3C)ccc1OC
27 | 159 to 161 °C | CCOC(=O)c1c(C)cc2nc(CO)n(-c3ccc4c(c3)OCO4)c(=O)c2c1C
28 | 230 °C | Nc1ccc(C(=O)O)c([N+](=O)[O-])c1
29 | 76 to 77 °C | CC(=O)C(=O)N[C@H](CO[N+](=O)[O-])c1ccccc1
30 | 131 to 133 °C | CC(C)(C)OC(=O)CCNC(=O)c1ccc2c(Cl)cnc(Cl)c2c1
31 | 65 to 67 °C | COC(=O)CCc1cc(C(=O)c2cccc(C#N)c2)ccc1OCCCCC=Cc1ccc(OC)cc1
32 | 120 to 125 °C | O=C1C(=Cc2ccccc2)c2ccccc2N1C1=NCCS1
33 | 220 to 224 °C | COc1ccc(C2CCOCC2)c2sc(-c3ncc[nH]3)nc12
34 | 102 to 104 °C | Cc1cc(S(N)(=O)=O)cs1
35 | > 250 °C | CCc1nc2c(N)nc3ccccc3c2n1CC1(O)CCS(=O)(=O)CC1
36 | 368 to 372 °C | CC(C)(C)NC1=NS(=O)(=O)c2sc(Cl)cc2N1
37 | 96 to 98 °C | COc1cccc(/C(=C\C=C\C(=O)NCCCCc2cccnc2)c2cccc(F)c2)c1
38 | 134 to 135 °C | Cc1c(C(=O)N[C@H](C)[C@](O)(Cn2cncn2)c2ccc(F)cc2F)cnn1-c1ccc(OC(F)(F)F)cc1
39 | 241 to 243 °C | Cc1nn(-c2ccccn2)c2nccc(O)c12

Row | SMILES | melting point
40 | COC(=O)C(O)(c1cccc(C(F)(F)F)c1)c1cccc(C(F)(F)F)c1 | 69 to 70 °C

Reference: a melting point compilation (Tetko et al.; mined from patent text by program, amines drawn as free bases though some values may be those of a salt)
